Measurements as given in paper PMC6205551, “Molecular analysis of the dual targeting of the epidermal growth factor receptor and the O^6-methylguanine-DNA methyltransferase with a double arm hybrid molecule” (Oncotarget, 2018).

Experiments:
[1] = biological target: T1, O^6-methylguanine-DNA methyltransferase (MGMT) (Homo sapiens, UniProt P16455); experiment: MALDI-TOF MS of tryptic peptides of isolated MGMT incubated with […] compound (S-benzylation); type: binding
T1 sequence (P16455 1-207): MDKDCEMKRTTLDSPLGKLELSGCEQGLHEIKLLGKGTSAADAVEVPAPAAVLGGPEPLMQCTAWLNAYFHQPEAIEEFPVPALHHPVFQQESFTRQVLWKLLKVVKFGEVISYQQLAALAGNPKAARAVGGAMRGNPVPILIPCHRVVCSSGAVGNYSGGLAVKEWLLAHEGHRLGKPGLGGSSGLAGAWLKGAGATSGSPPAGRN

[2] = biological target: epidermal growth factor receptor (EGFR) (Homo sapiens, UniProt P00533); experiment: in vitro EGFR kinase assay (PGT substrate, […] ATP, ELISA); type: biochemical
HER4 = biological target: T2, HER4 (Homo sapiens, UniProt Q15303); experiment: isolated kinase profiling (Carna), single dose […], ATP at Km; type: biochemical
T2 construct: gene ERBB4

HER2 = biological target: T3, HER2 (Homo sapiens, UniProt P04626); experiment: as above; type: biochemical
T3 construct: gene ERBB2

EGFR (L858R) = EGFR (L858R) (Homo sapiens, UniProt P00533, L858R); experiment: as above; type: biochemical

T3 sequence (P04626 23-1255): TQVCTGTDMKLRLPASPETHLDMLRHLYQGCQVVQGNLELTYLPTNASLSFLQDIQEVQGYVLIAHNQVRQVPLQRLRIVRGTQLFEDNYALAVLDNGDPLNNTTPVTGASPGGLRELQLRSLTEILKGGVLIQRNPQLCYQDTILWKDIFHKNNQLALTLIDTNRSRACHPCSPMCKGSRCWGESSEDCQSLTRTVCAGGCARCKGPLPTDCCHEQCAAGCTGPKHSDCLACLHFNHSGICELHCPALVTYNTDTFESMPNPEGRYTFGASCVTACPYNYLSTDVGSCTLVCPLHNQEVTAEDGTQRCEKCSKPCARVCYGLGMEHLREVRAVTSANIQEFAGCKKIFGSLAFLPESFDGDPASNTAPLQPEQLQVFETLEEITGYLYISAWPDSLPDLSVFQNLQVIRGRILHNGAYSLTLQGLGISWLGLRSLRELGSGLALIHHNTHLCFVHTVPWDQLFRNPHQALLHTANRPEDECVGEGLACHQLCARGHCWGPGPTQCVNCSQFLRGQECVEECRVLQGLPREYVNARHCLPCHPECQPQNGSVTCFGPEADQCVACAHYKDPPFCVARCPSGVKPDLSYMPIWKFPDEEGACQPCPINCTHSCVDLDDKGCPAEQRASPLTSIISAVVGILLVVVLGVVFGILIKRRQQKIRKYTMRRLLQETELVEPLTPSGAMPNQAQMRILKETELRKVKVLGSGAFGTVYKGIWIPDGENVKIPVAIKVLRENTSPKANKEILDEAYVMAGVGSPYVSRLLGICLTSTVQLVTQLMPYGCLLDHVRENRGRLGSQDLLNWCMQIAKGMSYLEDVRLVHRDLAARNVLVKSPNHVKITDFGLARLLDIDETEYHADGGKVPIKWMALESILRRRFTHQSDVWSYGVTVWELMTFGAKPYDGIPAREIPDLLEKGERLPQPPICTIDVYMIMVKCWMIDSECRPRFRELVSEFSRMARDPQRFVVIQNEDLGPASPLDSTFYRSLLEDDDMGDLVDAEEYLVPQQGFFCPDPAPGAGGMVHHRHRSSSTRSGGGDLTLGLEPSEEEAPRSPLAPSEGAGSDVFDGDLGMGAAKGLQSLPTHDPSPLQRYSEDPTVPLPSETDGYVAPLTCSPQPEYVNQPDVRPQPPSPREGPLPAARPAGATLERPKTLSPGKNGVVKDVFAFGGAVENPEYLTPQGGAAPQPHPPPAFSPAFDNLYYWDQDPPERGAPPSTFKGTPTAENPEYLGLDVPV
T2 sequence (Q15303 26-1308): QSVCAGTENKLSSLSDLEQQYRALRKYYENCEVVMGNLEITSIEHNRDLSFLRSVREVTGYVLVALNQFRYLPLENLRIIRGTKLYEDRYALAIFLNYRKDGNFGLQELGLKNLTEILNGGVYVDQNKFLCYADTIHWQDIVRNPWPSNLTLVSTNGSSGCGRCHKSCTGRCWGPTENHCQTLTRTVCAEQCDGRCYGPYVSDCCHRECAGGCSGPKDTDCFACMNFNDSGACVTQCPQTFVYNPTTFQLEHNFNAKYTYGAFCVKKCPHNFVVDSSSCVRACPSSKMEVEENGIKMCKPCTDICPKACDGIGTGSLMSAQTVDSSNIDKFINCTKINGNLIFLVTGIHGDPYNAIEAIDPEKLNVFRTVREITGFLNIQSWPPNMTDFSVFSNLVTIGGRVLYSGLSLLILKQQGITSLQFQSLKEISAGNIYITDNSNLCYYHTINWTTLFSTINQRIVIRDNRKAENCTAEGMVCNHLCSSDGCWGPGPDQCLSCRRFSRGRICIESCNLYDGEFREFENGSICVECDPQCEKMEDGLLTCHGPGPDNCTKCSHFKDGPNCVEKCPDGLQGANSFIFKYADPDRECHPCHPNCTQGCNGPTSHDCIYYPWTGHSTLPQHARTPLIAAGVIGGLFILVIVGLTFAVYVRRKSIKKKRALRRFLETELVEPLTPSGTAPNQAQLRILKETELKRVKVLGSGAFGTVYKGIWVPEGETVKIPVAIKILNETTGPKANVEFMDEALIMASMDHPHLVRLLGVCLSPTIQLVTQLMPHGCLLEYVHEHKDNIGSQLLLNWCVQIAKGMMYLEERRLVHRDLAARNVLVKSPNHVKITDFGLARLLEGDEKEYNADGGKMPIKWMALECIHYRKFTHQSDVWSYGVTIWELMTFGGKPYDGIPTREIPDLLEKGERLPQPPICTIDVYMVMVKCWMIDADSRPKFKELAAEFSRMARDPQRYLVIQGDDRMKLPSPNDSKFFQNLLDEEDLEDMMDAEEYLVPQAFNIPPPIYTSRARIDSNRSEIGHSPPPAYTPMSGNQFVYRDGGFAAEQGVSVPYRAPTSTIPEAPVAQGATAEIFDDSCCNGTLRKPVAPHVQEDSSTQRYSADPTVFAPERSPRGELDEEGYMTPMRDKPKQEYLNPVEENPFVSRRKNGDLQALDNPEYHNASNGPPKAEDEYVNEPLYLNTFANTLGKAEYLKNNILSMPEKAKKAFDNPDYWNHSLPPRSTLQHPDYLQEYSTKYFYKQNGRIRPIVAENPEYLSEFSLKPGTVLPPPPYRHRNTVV

| Compound | MALDI-TOF MS of tryptic peptides of isolated MGMT incubated with 10 μM compound [1] | IC50 [2] | isolated kinase profiling (Carna), single dose 500 nM, ATP at Km (HER4) | isolated kinase profiling (Carna), single dose 500 nM, ATP at Km (HER2) | isolated kinase profiling (Carna), single dose 500 nM, ATP at Km (EGFR (L858R)) |
| --- | --- | --- | --- | --- | --- |
| Nc1nc(OCc2ccccc2)c2nc[nH]c2n1 [O^6-BG] | when we treated MGMT with MR30 or O^6-BG, we observed a mass shift |  |  |  |  |
| Nc1nc(OCc2ccccc2)c2ncn(C(=O)N3CCN(CCNc4ccc5ncnc(Nc6cccc(Br)c6)c5c4)CC3)c2n1 [compound 5, (2-amino-6-(benzyloxy)-9H-purin-9-yl)(4-(2-((4-((3-bromophenyl)amino)quinazolin-6-yl)amino)ethyl)piperazin-1-yl)methanone] | like O^6-BG, MR30 is capable of binding to MGMT and alkylate its Cys145 | 300 ± 170 nM | MR30 selectively inhibited kinases from HER family of proteins, including EGFR, EGFR (L858R, d746-750), HER2 and HER4 | MR30 selectively inhibited kinases from HER family of proteins, including EGFR, EGFR (L858R, d746-750), HER2 and HER4 | MR30, selectively inhibited kinases from the HER family of proteins [e.g. EGFR wild-type, EGFR (L858R) |
